Data taken from PubChem BioAssay (NCI).
Several values for one entry are separate records, joined by “and”; a condition that tells them apart may be missing. Equal values may be shown once.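 96-well plates; 48 h exposure; 5 concentrations. Endpoints by linear interpolation between flanking doses. Not reached: highest tested concentration assigned. GI50 = concentration required for 50% inhibition of growth. TGI marks complete inhibition of growth.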

Experiments:
Assay in all cases: NCI anticancer screen, dose series, 48 h
IGROV1 ovarian = test system: IGROV1 ovarian
K-562 leukemia = test system: K-562 leukemia
M14 melanoma = test system: M14 melanoma
MCF7 breast = test system: MCF7 breast
NCI-H522 lung = test system: NCI-H522 lung
OVCAR-4 ovarian = test system: OVCAR-4 ovarian
RXF 393 renal = test system: RXF 393 renal
SK-MEL-28 melanoma = test system: SK-MEL-28 melanoma
SK-OV-3 ovarian = test system: SK-OV-3 ovarian
SN12C renal = test system: SN12C renal
LOX IMVI melanoma = test system: LOX IMVI melanoma

Structure (SMILES) | GI50 (IGROV1 ovarian) [µM] | TGI (IGROV1 ovarian) [µM] | TGI (K-562 leukemia) [µM] | GI50 (M14 melanoma) [µM] | TGI (M14 melanoma) [µM] | TGI (MCF7 breast) [µM] | GI50 (NCI-H522 lung) [µM] | TGI (NCI-H522 lung) | GI50 (OVCAR-4 ovarian) [µM] | TGI (OVCAR-4 ovarian) [µM] | GI50 (RXF 393 renal) [µM] | GI50 (SK-MEL-28 melanoma) [µM] | TGI (SK-MEL-28 melanoma) [µM] | GI50 (SK-OV-3 ovarian) [µM] | GI50 (SN12C renal) [µM] | TGI (SN12C renal) [µM] | TGI (LOX IMVI melanoma) [µM] | TGI (RXF 393 renal) [µM] | TGI (SK-OV-3 ovarian) [µM]
O=c1cc(-c2cccc3ccccc23)[nH]c2ncccc12 | 0.0417 | > 100 | > 100 | 0.0275 | > 100 | 4.25 | 0.0158 | 0.0698 µM and 0.0767 µM | 77.6 | > 100 | 11.9 | 0.0158 | > 100 | 0.0147 | 0.149 | > 100 | – | – | –
CC(C)=CC[C@]12CCN[C@H]1N(S(=O)(=O)c1ccccc1)c1ccccc12 | – | 30.8 | 56.9 | – | – | 39.8 | – | 30.1 µM | – | 42 | – | – | 31.5 | – | – | 26.4 | 31.2 | 27.6 | 38.9
COC(=O)c1ccccc1/C=C1\Cc2ccc(C)c(C)c2C1=O | – | > 100 | > 100 | – | > 100 | > 100 | – | > 100 µM | – | > 100 | – | – | > 100 | – | – | > 100 | > 100 | > 100 | –
CN1CCOC(c2ccccc2)O1 (centres undefined) | – | > 100 | > 100 | – | > 100 | – | – | > 100 µM | – | > 100 | – | – | > 100 | – | – | > 100 | > 100 | > 100 | > 100
CCCNC(=S)NNC(=O)CSc1nc(-c2ccccc2)c(-c2ccccc2)[nH]1 | – | > 100 | – | – | 89.6 | – | – | 78.1 µM | – | > 100 | – | – | > 100 | – | – | > 100 | > 100 | – | > 100
CC(=O)c1sc(Nc2nnc(-c3ccc(-c4nnc(Nc5nc(C)c(C(C)=O)s5)o4)cc3)o2)nc1C | – | > 100 | > 100 | – | > 100 | – | – | > 10 µM | – | > 100 | – | – | > 100 | – | – | > 100 | > 100 | > 100 | > 10
CC1c2c(Cl)nc3ccccc3c2Oc2c1c(Cl)nc1ccccc21 | – | > 100 | > 100 | – | – | – | – | > 100 µM | – | – | – | – | > 100 | – | – | – | > 100 | > 100 | > 100
COC1(OC)C(N(C)C)=C(Cl)C(=O)/C1=C/C=O | – | > 100 | > 100 | – | > 100 | – | – | – | – | > 100 | – | – | > 100 | – | – | > 100 | > 100 | – | > 100
Cc1cc2oc(=N)c(C#N)c(C)c2cc1C | – | > 100 | > 100 | – | > 100 | > 100 | – | – | – | > 100 | – | – | > 100 | – | – | > 100 | > 100 | 87.3 | > 100
CC(=O)Oc1ccc2c(C)cc(=O)oc2c1OC(C)=O | – | 92.9 | > 100 | – | > 100 | > 100 | – | – | – | > 100 | – | – | > 100 | – | – | > 100 | > 100 | – | > 100
Cn1cc(NC(=O)Nc2cc(C(=O)Nc3cc(C(=O)Nc4ccc(S(=O)(=O)O)c5cc(S(=O)(=O)O)ccc45)n(C)c3)n(C)c2)cc1C(=O)Nc1cc(C(=O)Nc2ccc(S(=O)(=O)O)c3cc(S(=O)(=O)O)ccc23)n(C)c1 | – | > 100 | > 100 | – | > 100 | > 100 | – | > 100 µM | – | > 100 | – | – | > 100 | – | – | > 100 | – | > 100 | > 100
N#Cc1c2ccccc2cn1-c1ccc(F)cc1 | – | > 100 | > 100 | – | > 100 | – | – | 43.2 µM | – | > 100 | – | – | > 100 | – | – | – | – | – | –
CC#CCOC(=O)c1ccccc1OC(C)=O | – | > 100 | > 100 | – | > 100 | > 100 | – | > 100 µM | – | > 100 | – | – | – | – | – | > 100 | > 100 | > 100 | > 100
O=C1CCCC1CN1CCCC1 (centres undefined) | – | 26.6 | 1.18 | – | 6.74 | 8.53 | – | – | – | 4.32 | – | – | 27.7 | – | – | 32.6 | 24.4 | – | 27.7
Cc1ccccc1N1C(=O)C2C=CC(n3[nH]c(=O)n(Cc4ccccc4)c3=O)CC2C1=O (centres undefined) | – | > 100 | > 100 | – | > 100 | – | – | > 100 µM | – | – | – | – | > 100 | – | – | > 100 | > 100 | > 100 | > 100
COc1ccc(/C=C2\N=C(SC)N(CN3CCOCC3)C2=O)cc1 | – | > 100 | > 100 | – | > 100 | > 100 | – | > 100 µM | – | 78.2 | – | – | > 100 | – | – | > 100 | > 100 | – | > 100
O=C(Nc1nc(C23CC4CC(CC(C4)C2)C3)cs1)c1cc2ccc(O)cc2oc1=O | – | 33 | 68.2 | – | – | 61.3 | – | 45.6 µM | – | 44 | – | – | 47 | – | – | 30.4 | 22.2 | 51.2 | –
COC(=O)C1=C(C(=O)NNc2ccccc2)N(c2cccnc2Cl)C(c2ccccc2)=CC1c1ccccc1 (centres undefined) | – | > 100 | > 100 | – | > 100 | > 100 | – | > 100 µM | – | > 100 | – | – | > 100 | – | – | > 100 | > 100 | – | > 100
COC(CNC(=O)C(C)NC(=O)/C=C/c1ccccc1)OC (centres undefined) | – | > 100 | > 100 | – | > 100 | > 100 | – | > 100 µM | – | – | – | – | – | – | – | > 100 | – | > 100 | > 100
O=C1C(c2c(O)[nH]c3ccc(F)cc23)=Nc2ccccc21 | – | > 100 | > 100 | – | > 100 | > 100 | – | > 100 µM | – | – | – | – | > 100 | – | – | > 100 | > 100 | 9.77 | 24.9
Nc1ncnc2c1ncn2[C@@H]1C[C@@H]1CO | – | – | > 100 | – | – | > 100 | – | > 100 µM | – | – | – | – | – | – | – | > 100 | > 100 | – | –
S=c1sc2c(Cl)nc(Cl)nc2n1-c1ccccc1 | – | 33.6 | > 100 | – | 43 | – | – | 23.8 µM | – | > 100 | – | – | 29 | – | – | > 100 | > 100 | 50.6 | > 100
